Values quoted from earlier work as cited in patent US20220000834A1, “NOVEL ADMINISTRATION METHOD” (SUMITOMO DAINIPPON PHARMA CO., LTD., priority 2019, published 2022).

Key:
[1] = test system: nerves in an injured part; settings: Patent Documents 1 and 2
nerve cells = settings: as low as

CC(=O)c1cc2c(=O)c3c(C(=O)O)c(O)c(O)cc3oc2c(C(C)=O)c1-c1coc2cc(O)c(O)c(C(=O)O)c2c1=O [compound A]
regeneration of nerves in an injured part [1]: accelerates the regeneration of nerves in an injured part

B1: Sema3A: class 3 semaphorin; suppresses growth of neurite growth cone (protein, UniProt Q14563 21-771, looked up)
Semaphorin-3A: NYQNGKNNVPRLKLSYKEMLESNNVITFNGLANSSSYHTFLLDEERSRLYVGAKDHIFSFDLVNIKDFQKIVWPVSYTRRDECKWAGKDILKECANFIKVLKAYNQTHLYACGTGAFHPICTYIEIGHHPEDNIFKLENSHFENGRGKSPYDPKLLTASLLIDGELYSGTAADFMGRDFAIFRTLGHHHPIRTEQHDSRWLNDPKFISAHLISESDNPEDDKVYFFFRENAIDGEHSGKATHARIGQICKNDFGGHRSLVNKWTTFLKARLICSVPGPNGIDTHFDELQDVFLMNFKDPKNPVVYGVFTTSSNIFKGSAVCMYSMSDVRRVFLGPYAHRDGPNYQWVPYQGRVPYPRPGTCPSKTFGGFDSTKDLPDDVITFARSHPAMYNPVFPMNNRPIVIKTDVNYQFTQIVVDRVDAEDGQYDVMFIGTDVGTVLKVVSIPKETWYDLEEVLLEEMTVFREPTAISAMELSTKQQQLYIGSTAGVAQLPLHRCDIYGKACAECCLARDPYCAWDGSACSRYFPTAKRRTRRQDIRNGDPLTHCSDLHHDNHHGHSPEERIIYGVENSSTFLECSPKSQRALVYWQFQRRNEERKEEIRVDDHIIRTDQGLLLRSLQQKDSGNYLCHAVEHGFIQTLLKVTLEVIDTEHLEELLHKDDDGDGSKTKEMSNSMTPSQKVWYRDFMQLINHPNLNTMDEFCEQVWKRDRKQRRQRPGHTPGNSNKWKHLQENKKGRNRRTHEFERAPRSV
concentration inducing regression of nerve cells (nerve cells): 10 pM
